Experimental data taken from article PMC4887402 (Journal of inorganic biochemistry, 2015).

Target: Cytochrome P450 CYP3A4 (Homo sapiens, UniProt P08684)
Assay: UV-VIS spectral titration
Format: binding

Sequence of Cytochrome P450 CYP3A4 (P08684 whole entry): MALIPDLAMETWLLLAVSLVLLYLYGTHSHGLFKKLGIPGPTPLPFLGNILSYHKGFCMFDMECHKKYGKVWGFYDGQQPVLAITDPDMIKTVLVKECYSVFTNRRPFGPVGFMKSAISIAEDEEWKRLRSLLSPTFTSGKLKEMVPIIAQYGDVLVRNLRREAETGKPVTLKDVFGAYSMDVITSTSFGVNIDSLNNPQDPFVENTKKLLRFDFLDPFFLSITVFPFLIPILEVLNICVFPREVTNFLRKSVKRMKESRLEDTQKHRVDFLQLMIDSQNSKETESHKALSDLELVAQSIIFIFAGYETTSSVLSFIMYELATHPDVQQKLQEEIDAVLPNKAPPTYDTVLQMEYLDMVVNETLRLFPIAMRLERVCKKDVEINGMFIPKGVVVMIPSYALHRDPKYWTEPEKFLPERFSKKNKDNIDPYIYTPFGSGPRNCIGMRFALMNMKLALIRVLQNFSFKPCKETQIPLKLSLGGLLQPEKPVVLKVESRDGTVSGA

## C[C@]12CC[C@H]3[C@@H]([C@H](C/C=C\C[C@@H]4CC5=CC(=O)CC[C@]5(C)[C@H]5CC[C@]6(C)[C@@H](O)CC[C@H]6[C@H]45)CC4=CC(=O)CC[C@@]43C)[C@@H]1CC[C@@H]2O [cis-TST2]
  Kd: 0.3 µM

## C[C@]12CC[C@H]3[C@@H]([C@H](C/C=C/C[C@@H]4CC5=CC(=O)CC[C@]5(C)[C@H]5CC[C@]6(C)[C@@H](O)CC[C@H]6[C@H]45)CC4=CC(=O)CC[C@@]43C)[C@@H]1CC[C@@H]2O [trans-TST2]
  Kd: 8 µM
